Columns and labels:
[1] = Analytical HPLC of Pluronic F-127 formulated substrates reconstituted in water (Examples 34-36); type: physicochemical
Procedure: 2.5 mgs of Pluronic® F-127 (Sigma Aldrich) were massed out into […] snap-top Eppendorf tubes. The polymer was heated to 70° C. in a water bath until melted, becoming a clear solution. […] 5 μL of this stock was added to the melted polymer and pipetted to mix. […] Condition 2—After addition of substrate, the substrate/polymer solution was further diluted with 45 μL of water, frozen, and lyophilized overnight.
Samples from both conditions 1 and 2 were reconstituted in water, diluted to 100 μM, and analyzed for chemical integrity via analytical HPLC (FIG. 54).
This formulation was also prepared for the coelenterazine analog, furimazine. 2.5 mgs of Pluronic® F-127(Sigma Aldrich) were massed out into 1.5 mL, snap-top Eppendorf tubes. The polymer was heated to 70° C. in a water bath until melted. A 10 mM stock solution of furimazine was prepared in EtOH. 5 μL of this stock was then added to the melted polymer and pipetted to mix. […] Condition 2—After addition of substrate, the substrate/polymer solution was further diluted with 45 μL of water, frozen, and then lyophilized overnight.
25 mgs of Pluronic® F-127 were massed out into a 1.5 mL, snap-top Eppendorf tube. The polymer was heated to 70° C. in a water bath until melted. […] An additional 50 μL of EtOH was used to wash and aid transfer of the substrate into the polymer solution. The solvent was removed under reduced pressure without heat.
After lyophilization, each sample was reconstituted with either 500 μL, 400 μL, 250 μL, or 100 μL water, respectively.

[2] = molecular target: T1, cell culture expressing NanoLuc® enzyme (Oplophorus gracilirostris, UniProt Q9GV45, A31E/A60N/A81I/F95D/I117V/K70R/L54V/L99Q/M102K/N193R/P142E/Q151K/Q38R/Q45L/V71I/Y165I); assay: Luminescence intensity of Nano-Glo substrate formulations with cell culture expressing NanoLuc (Examples 30-33); type: cell-based; conditions: Example 32; 100 mM HP-β-CD
T1 construct: expressed in transfected cells
T1 sequence (Q9GV45 28-196 with tags or gaps with the stated changes limits assumed): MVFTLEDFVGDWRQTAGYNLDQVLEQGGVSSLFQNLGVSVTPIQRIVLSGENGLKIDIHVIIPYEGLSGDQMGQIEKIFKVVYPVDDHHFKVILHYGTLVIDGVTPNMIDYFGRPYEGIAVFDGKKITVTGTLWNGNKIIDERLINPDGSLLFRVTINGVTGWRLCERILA
Procedure: One volume of Nano-Glo® Luciferase Assay Substrate (Promega Cat. #N113) was combined with 50 volumes of Nano-Glo® Luciferase Assay Buffer (Promega Cat. #N112) containing sodium ascorbate at concentrations ranging from 0 to 300 mM. The solutions were incubated at 37° C. prior to assay at several time points. Nano-Glo® Luciferase Assay Substrate used according to manufacturer's instructions (stored at −20° C. during the course of the experiment and reconstituted for each time point) was used as a positive control. A cell culture expressing NanoLuc® enzyme was used as a sample for each time point. One volume of reconstituted Nano-Glo® Luciferase Assay Buffer was mixed with one volume of sample. After 3 minutes, the luminescence intensity was measured with a Bio-Tek Synergy® H1 96-well plate reader. For each sample, the luminescence intensity was background subtracted and normalized to the −20° C. control signal.
A 4× furimazine solution was prepared by diluting the stock 1:25 in a buffer containing 200 mM MES pH 6.0, 200 mM hydroxypropyl-β-cyclodextrin (HP-β-CD), and 600 mM sodium ascorbate. The solution was lyophilized for 48 hours using a Virtis Advantage Pro® Lyophilizer. […] After 3 min, the luminescence intensity was measured with a Bio-Tek Synergy H1 96-well plate reader. […] For each sample, the luminescence intensity was background subtracted and normalized to the −20° C. control signal. […]

[3] = Absorbance of reconstituted furimazine compositions (Example 2); type: physicochemical
Procedure: Bulk solid furimazine was diluted in ethanol to a final concentration of 10 mM (solution 1). […] After mixing, vials containing solutions 3a-e were placed in dry ice to freeze for 1 hour. These frozen stocks where then lyophilized overnight for form dry pullulan matrices containing furimazine. […] Absorbance spectra of the formulated dry furimazine (50 nmols) with increasing amounts of pullulan after reconstitution in the PBS buffer are shown in FIG. 4A. Formulated furimazine with pullulan led to an increase in furimazine absorbance in aqueous solution. Concentration of furimazine was determined by Beer's law using the extinction coefficient of furimazine in methanol (21000 M^−1cm^−1) with absorbance measured at 254 nm. […] Absorbance of the formulated furimazine (95 μg) with increasing amounts of pullulan after reconstitution in the PBS buffer are shown in FIG. 4B. The solid furimazine formulated with increasing concentrations of pullulan matrix led to an increased in absorbance, and thus furimazine concentration in PBS buffer, compared to the conditions that contained only furimazine without pullulan.

Compound: O=c1c(Cc2ccco2)nc2c(Cc3ccccc3)[nH]c(-c3cccc(O)c3)cn1-2 [JRW-0238, 8-benzyl-2-(furan-2-ylmethyl)-6-(3-hydroxyphenyl)imidazo[1,2-a]pyrazin-3(7H)-one]
- Area Percent, peak at retention time 6.969-6.985 min ([1]; Example 34): 1.571%

Compound: hydroxypropyl-β-cyclodextrin [HP-β-CD]
- signal enhancement compared to Nano-Glo buffer alone [2]: 15 to 20%

Compound: O=c1c(Cc2ccco2)nc2c(Cc3ccccc3)[nH]c(-c3ccccc3)cn1-2 [furimazine, 8-benzyl-2-(furan-2-ylmethyl)-6-phenylimidazo[1,2-a]pyrazin-3(7H)-one]
- absorbance at 254 nm ([3]; 19.08 μg furimazine in 0.5 mL PBS pH 6.8, 30 minutes at room temperature): 0.0571
- calculated concentration of furimazine in solution ([3]; Beer's law from absorbance at 254 nm, 19.08 μg in 0.5 mL PBS pH 6.8): 0.0082 mM
- Area Percent, peak at retention time 6.104-6.109 min ([1]; Example 35): 0.705%
- Area Percent, peak at retention time 6.541-6.548 min ([1]; Example 35): 1.407%
- Area Percent, peak at retention time 7.949-7.957 min ([1]; Example 35): 1.030%
- Area Percent, peak at retention time 5.028-5.038 min (main peak) ([1]; Example 35, furimazine, 100 μM): 96.858%

Source: patent US11534504B2, “Compositions and methods for stabilizing coelenterazine and analogs and derivatives thereof” (Promega Corporation, priority 2018, dated 2022)
